These results are taken from the Kinase Knowledgebase extract (Sharma et al. 2016).

SMILES strings stand for the structures.

Test [1] concerns the target MAPK14 (human) (UniProt Q16539). Nature of the test: Sodium butyrate-induced Hemoglobinization (K562 Cells). The note with it: concentration not given here.
For test [2] the target is unchanged. The test can be described thus: Hydroxyurea-induced Hemoglobinization (K562 Cells). The conditions noted are these: concentration not given here.

MAPK14 (human), sequence (Q16539 whole entry, looked up): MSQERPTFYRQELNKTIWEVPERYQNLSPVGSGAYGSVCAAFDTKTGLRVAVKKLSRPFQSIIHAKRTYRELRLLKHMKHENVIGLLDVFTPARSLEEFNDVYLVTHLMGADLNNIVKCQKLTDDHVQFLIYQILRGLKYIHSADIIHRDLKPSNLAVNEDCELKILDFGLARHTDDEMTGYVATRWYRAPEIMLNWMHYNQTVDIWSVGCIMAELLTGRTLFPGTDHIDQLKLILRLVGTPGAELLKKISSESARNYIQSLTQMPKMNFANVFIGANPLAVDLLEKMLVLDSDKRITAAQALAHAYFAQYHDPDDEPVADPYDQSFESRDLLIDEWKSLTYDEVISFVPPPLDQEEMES

In the case of `CCCC(=O)[O-].[Na+]`, the cell count on MAPK14 (human) [1] is 39.8%.

Regarding `COc1cccc(-c2cc(=O)c3ccccc3o2)c1N.NC(=O)NO`, the cell count on MAPK14 (human) [2] worked out at 54%.

Turning to `COc1cccc(-c2cc(=O)c3ccccc3o2)c1N`, the cell count on MAPK14 (human) [2] turned out to be 32.4%.
